Results reported in patent US12016843B2, “Compositions and methods for the treatment of amyotrophic lateral sclerosis, parkinson's disease, parkinson's disease with dementia, dementia with lewy bodies, and multiple system atrophy” (priority 2019, dated 2024).

Columns and labels:
[1] = Drug levels in whole brain homogenate by LC-MS/MS after subcutaneous injection; format: in vivo; settings: Sprague Dawley rats, 5 mg/kg subcutaneous, over 36 hours, compared with elamipretide
Protocol: Sprague Dawley rats were injected subcutaneously with 5 mg/kg of Compound Ia or elamipretide (n=4 per time-point). Animals were sacrificed at the indicated timepoints and transcardial perfusion was performed. Drug levels in whole brain homogenate were determined by LC-MS/MS.

[2] = tested on: SOD1 G93A high copy transgenic mice; assay: Plasma neurofilament light chain (NfL) levels in SOD1 G93A mouse model of ALS; format: in vivo; settings: for plasma NfL levels Mean Diff. (Dunnett's multiple comparisons test, Vehicle vs. 0.5 mg/kg): 0.5 mg/kg daily ip; for plasma NfL levels Mean Diff. (Dunnett's multiple comparisons test, Vehicle vs. 0.5 mg/kg) / plasma NfL levels Mean Diff. (Dunnett's multiple comparisons test, Vehicle vs. 5.0 mg/kg): 10 weeks; for plasma NfL levels Mean Diff. (Dunnett's multiple comparisons test, Vehicle vs. 5.0 mg/kg): 5.0 mg/kg daily ip
Protocol: Study Design. Three experimental groups of n=20 (10 male, 10 female) SOD1 G93A high copy transgenic mice were dosed daily via intraperitoneal administration of vehicle control; (R)-2-amino-N—((S)-1-(((S)-5-amino-1-(3-benzyl-1,2,4-oxadiazol-5-yl)pentyl)amino)-3-(4-hydroxy-2,6-dimethylphenyl)-1-oxopropan-2-yl)-5-guanidinopentanamide (as its tris-HCl salt-(Ia)) at 0.5 mg/kg; or (R)-2-amino-N—((S)-1-(((S)-5-amino-1-(3-benzyl-1,2,4-oxadiazol-5-yl)pentyl)amino)-3-(4-hydroxy-2,6-dimethylphenyl)-1-oxopropan-2-yl)-5-guanidinopentanamide (as its tris-HCl salt—(Ia)) at 5.0 mg/kg. Animals were dosed beginning at 8 weeks of age and dosing was continued until humane end of life (defined by the inability of animal to right itself from either side within 30 seconds when placed on its side). Experimental endpoints and in-life collections and observations were as follows: • 1. Bodyweight measurement. Daily recording of weight. • 2. Neurological scoring. Weekly NeuroScore, a qualitative assessment of neurological disease progression based upon a five-point grading system. Scoring is defined as follows: • Score 0: Full extension of hind legs away from the lateral midline when the mouse is suspended by its tail, and the mouse can hold this extension for 2 seconds, being suspended 3 times consecutively. • Score 1: Collapse or partial collapse of the leg extension toward the lateral midline or trembling of hind legs during the tail suspension. • Score 2: Toes curl under at least twice during walking of 12 inches, or any part of the foot is dragging along the cage bottom or table. • Score 3: Rigid paralysis or minimal joint movement, the foot is not being used for forward motion. • Score 4: The mouse cannot right itself within 30 sec from either side. • 3. Grip strength test. Weekly forelimb grip strength, performed as follows: • a. Subjects are weighed and acclimated to the testing room for at least 60 min. • b. Equipment: Bioseb grip strength meter equipped with a grid for grasping that is suited for mice. • c. Mice are lowered towards the grid by their tails to allow for visual placing and for the mouse to grip the grid with their forepaws. • d. Subjects are firmly pulled horizontally away from the grid (parallel to the bench) for 3 consecutive trials with a brief (approximately 30 sec) rest period on the bench between trials. • e. The average force in grams of the 3 forepaw and 3 all-paws trials are analyzed with and without normalization to body weight. • 4. Retro-orbital blood collection. Bi-weekly retroorbital eye bleeds to determine drug exposure levels as well as levels of neurofilament light chain, a biomarker of axonal damage shown to correlate with ALS disease progression in human patients. Briefly, mice are sedated with isoflurane (5% induction, 2% maintenance) in O2. When they reach the plane of anesthesia, mice are withdrawn from isoflurane and blood is collected with a 25 μL glass capillary tube from the retro-orbital sinus, alternating sides for successive bleeds. 200 μL of whole blood is collected in a BD K2EDTA Microtainer collection tube containing 3.5 μL of 25X HALT protease inhibitor cocktail and kept on ice for processing. Mice are allowed to recover from the anesthesia, then returned to their home cage. Results […]

[3] = tested on: C57BL/6 mice injected with A53T mutant alpha-synuclein viral particles; assay: Dopaminergic neuron loss in substantia nigra pars compacta induced by AAV9 human A53T alpha-synuclein (TH positive neuron counts); format: in vivo, mouse; settings: 0.5 mg/kg or 5.0 mg/kg daily ip for 5 weeks, vs group A (A53T AAV, no drug)
Protocol: Dopaminergic neuron loss in the substantia nigra pars compacta (SNc) was induced in wildtype C57BL/6 mice using AAV9 mediated viral delivery of human alpha-synuclein harboring the pathogenic A53T mutation. 4×10^10 viral particles per SNc were injected bilaterally via stereotactic surgery. Animals were nine weeks of age when viral transduction was performed. Animals were treated daily with intraperitoneal administration of (Ia) beginning 24 hours before viral transduction and continued for 5 weeks. Experimental groups were as follows: • 1. Group A—AAV A53T injected, vehicle treatment (n=7) • 2. Group B1—AAV A53T injected, (Ia) at 0.5 mg/kg treatment (n=8) • 3. Group B2—AAV A53T injected, (Ia) at 5.0 mg/kg treatment (n=8) • 4. Group C1—Sham AAV9 injected, (Ia) at 0.5 mg/kg treatment (n=6) • 5. Group C2—Sham AAV9 injected, (Ia) at 5.0 mg/kg treatment (n=7)
Five weeks following viral transduction, animals were sacrificed and brains were removed and processed for immunohistochemistry and cell counts (i.e., number of TH positive neurons) in the substantia nigra pars compacta were performed via automated stereology. Serial sections were cut and stained with tyrosine hydroxylase (TH) to enumerate the number of dopaminergic neurons. Results are illustrated in FIGS. 6A and 6B; ** p<0.01 vs groups; *** p<0.001 vs group A; ^OO p<0.001 vs group C1 and C2.

[4] = tested on: corticospinal motor neurons derived from prp-TDP-43^A315T-UeGFP mouse model; assay: Neurite length in primary corticospinal motor neurons from prp-TDP-43^A315T-UeGFP mice; format: cell-based; settings: 10 nM, 100 nM and 1000 nM, vs DMSO vehicle
Protocol: Studies were performed in primary cells derived from the prp-TDP-43^A315T-UeGFP mouse model (Gautam, et al. Acta Neuropathol. 2019 January; 137(1): 47-69). Briefly, these mice express a pathogenic human TDP43 transgene which leads to severe structural alterations in the mitochondria, nucleus, and endoplasmic reticulum on the background of an eGFP reporter mouse. Both transgene (prp) and reporter (UCHL1) are driven by tissue specific promoter elements, leading to the generation of fluorescent green corticospinal motor neurons carrying the TDP43 mutation. Utilizing the endogenous fluorescence of the eGFP reporter, corticospinal motor neurons can be directly visualized in situ. Mixed cortical cultures were derived from the brains of prp-TDP-43^A315T-UeGFP mice and allowed to divide in serum free minimal medium for 3 cell divisions. Culture media +/− drug was removed and replenished daily. Doses of Compound Ia utilized in the experiment were 10 nM; 100 nM and 1000 nM. Drug was prepared in DMSO vehicle, and DMSO was used as vehicle control (<1% volume/volume). Cells were imaged using standard fluorescent microscopy techniques. Neurite length was calculated using automated imaging software (NIH Image J) on GFP expressing cells. Three independent biological replicates were performed, with a minimum of 10 motor neurons imaged per each replicate. […]

## Cc1cc(O)cc(C)c1C[C@H](NC(=O)[C@H](N)CCCNC(=N)N)C(=O)N[C@@H](CCCCN)c1nc(Cc2ccccc2)no1.Cl.Cl.Cl [Compound Ia, (R)-2-amino-N—((S)-1-(((S)-5-amino-1-(3-benzyl-1,2,4-oxadiazol-5-yl)pentyl)amino)-3-(4-hydroxy-2,6-dimethylphenyl)-1-oxopropan-2-yl)-5-guanidinopentanamide·3HCl]
[1]
  brain exposure (drug levels in whole brain homogenate): higher than that of elamipretide
[2]; female SOD1 G93A mice
  plasma NfL levels Mean Diff. (Dunnett's multiple comparisons test, Vehicle vs. 0.5 mg/kg): −1075
  plasma NfL levels Mean Diff. (Dunnett's multiple comparisons test, Vehicle vs. 5.0 mg/kg): 1291
[2]; male SOD1 G93A mice
  plasma NfL levels Mean Diff. (Dunnett's multiple comparisons test, Vehicle vs. 0.5 mg/kg): 897.8
  plasma NfL levels Mean Diff. (Dunnett's multiple comparisons test, Vehicle vs. 5.0 mg/kg): 3469
[2]; male SOD1 G93A mice, 5.0 mg/kg, 10 weeks of administration
  accumulation of NfL in plasma: statistically significant impact on the accumulation of NfL
[3]
  mutant alpha-synuclein-induced loss of dopaminergic neurons in the substantia nigra (number of TH positive neurons): significantly attenuated
[4]
  average neurite length per cell: improved neurite length at all doses assessed
